# Data published in a melting point compilation (Tetko et al.; mined from patent text by program, amines drawn as free bases though some values may be those of a salt).
row,melting point [°C],SMILES
1,214 to 216,Cc1cccnc1COc1nn2c(-c3ccccc3)nnc2cc1C12CCC(CC1)C2
2,128,Clc1nccc(-n2ccnc2)n1
3,188 to 189,Cc1ccc(-c2ccccc2C(=O)O)cc1C(=O)NCC1CCCCCC1
4,104 to 105,O=S(=O)(Nc1onc(C(F)(F)F)c1Br)c1ccccc1
5,100,OC(CC(Br)=CBr)(CC(Br)=CBr)Cn1cncn1 (configuration not stated)
6,> 300,CC1(C)CC(=O)Nc2cc3nc(-c4ccc(S(=O)(=O)O)cc4)[nH]c3cc21
7,167 to 169,CCS(=O)(=O)CCC(=O)NNC(=O)N1Cc2ccccc2Oc2ccc(C)cc21
8,91 to 93,Nc1ccccc1C(=O)NCCCCn1ccnc1
9,108,c1ccc(-c2n[nH]cc2-c2ccnc(-c3ccc(OCCn4ccnc4)cc3)c2)nc1
10,126 to 127,CN1C(=NCCCCn2ccnc2)c2cccc3cccc1c23
11,121,CCCCCc1ccc(CCc2ccc(-c3ccc(OC(F)F)cc3)cc2)cc1
12,121 to 122,CCNc1c(OC)cc(C(O)CS(C)(=O)=O)cc1OC (configuration not stated)
13,86 to 88,CCOC(=O)CS(=O)(=O)Nc1ccccc1CC(=O)OC
14,> 300,Nc1[nH]nc(-c2ccc(Cl)cc2)c1-c1ccncc1
15,154 to 157,CC1SC(=O)NN=C1c1ccc(N2CCC(N)CC2)c([N+](=O)[O-])c1 (configuration not stated)
16,96 to 107,NC1=NC(c2ccc(OC(F)F)cc2)(c2cccc(-c3cccnc3F)c2)C2=NCC3(COC3)CN12 (configuration not stated)
17,111 to 113,C=CC(=O)c1ccc(OCC(=O)O)c(Cl)c1Cl
18,203,CC(C)Oc1ccc(-n2c(CC(=O)O)c(C(=O)O)c3cc(Oc4cccc(C(F)(F)F)c4)ccc32)cc1
19,74 to 79,Cc1cc(-c2cccc(Cl)c2C=O)ccc1F
20,238 to 248,O=C(O)c1cc([N+](=O)[O-])ccc1NCc1ccccc1
21,173 to 174,CCCc1nsc(NC(=O)NC)c1C(=O)OCC
22,230,"CCCN1c2ccc3c(c2CC1C(N)=O)CC(N)CC3 (single isomer, unassigned; (+))"
23,90 to 92,CCCOc1ccc(-c2scc(-c3ccccc3OC(F)(F)F)c2CC(=O)N=C(N)N)cc1
24,52 to 53,CCCCCCCCCCC[C@H](CC(=O)N[C@@H](CO)C(=O)OCc1ccccc1)OC(=O)CCCCCCCC

row,melting point [°C],SMILES
1,127,CC(NS(=O)(=O)c1cc(C(=O)CCl)ccc1Cl)c1ccccc1 (configuration not stated)
2,112 to 114,O=C1c2ccccc2C(=O)N1[C@@H]1C=CCC[C@@H]1O (racemic)
3,159 to 160,c1ccc(OCNc2ccncc2)cc1
4,143 to 144,CC(C)(C)OC(=O)N1CC(=O)Nc2ccccc21
5,87,O=C1c2ccccc2C(=O)N1OC1C=CCCC1 (configuration not stated)
6,124 to 125,Cc1ccc(Cn2c(=O)c(-c3ccccc3)c3n(c2=O)CC=CS3)cc1
7,139 to 141,CS(=O)(=O)c1ccc(-c2cnn(Cc3ccc(Cl)s3)c(=O)c2-c2ccc(F)cc2)cc1
8,56 to 58,CC(C)(C)OC(=O)Nc1cc(N2CCC(OCCOC3CCCCO3)CC2)c(-c2ccc(F)cc2)cc1N (racemic)
9,189 to 190,CCn1cc(S(=O)(=O)NC(=O)c2cn3cc(C(F)(F)F)cc(Cl)c3n2)c(C)n1
10,53 to 59,O=[N+]([O-])c1ccc(Oc2ccc(C(F)(F)F)cc2Cl)nc1Cl
11,148 to 150,CCOc1cc(C=O)cc2c1OC1(C=C2Br)CCN(C(=O)OC(C)(C)C)CC1
12,273 to 275,CNc1ccc(-c2cnc3[nH]cc(C(=O)C4(C)CCCCC4)c3n2)cc1
13,51 to 53,CCCCC[C@H](CC(=O)OC(C)(C)C)C(=O)N1C(=O)OC[C@@H]1C(C)C
14,185 to 187,O=C1[C@H]2CCC[C@H]2N(C(=O)CNS(=O)(=O)c2ccccc2)c2ccccc2N1Cc1ccccc1 (relative stereo)
15,145 to 147,COc1cnc2sc(SCc3ccccc3)nn2c1=O
16,40 to 41,COc1ccc(C2(O)OC(=O)C(c3ccc4nsnc4c3)=C2Cc2ccccc2)cc1 (configuration not stated)
17,164 to 166,O=CNC1=NN(c2ccc(Cl)cc2)C(c2ccccc2)C1 (configuration not stated)
18,185 to 187,Cc1ccc(CS(=O)c2nc3cc4c(cc3[nH]2)OCO4)nc1 (configuration not stated)
19,157 to 159,O=c1[nH]ccn1-c1ccc(OCC(F)(F)C(F)F)cc1
20,217,CC1=C(CNC(=O)NC(C)C)c2cc(F)ccc2/C1=C\c1ccc(S(C)(=O)=O)cc1
21,264 to 265,Nc1ccc(C2=Nn3ccnc3Cc3cc4c(cc32)OCO4)cc1
22,170 to 172,CC(=O)Nc1cc(C(C)(C)C)nn1C(=NOS(=O)(=O)c1ccc(C)cc1)C(C)CN1C(=O)c2ccccc2C1=O (configuration not stated)
23,> 250,CN1C(=O)C2(COc3cc4c(cc32)OCCO4)c2c(Oc3ncccc3C(F)(F)F)cccc21 (configuration not stated)
24,132 to 133,CCc1nn2c(-c3cccnc3)ccnc2c1Cl

row,melting point [°C],SMILES
1,130 to 131,NC(=O)CNC(=O)c1cccc(-c2c(F)ccc3cc(Cc4cccc(C(F)(F)F)c4)sc23)c1
2,204,CS(=O)(=O)C(=C1CN(C(c2ccccc2)c2ccccc2)C1)c1ccccc1Cl
3,123 to 125,CCCCCC(=O)c1c(C)nc2cc(OC)c(OC)cc2c1-c1ccc(OC)c(OC)c1
4,56 to 59,CCCC(O)c1cc(C)cc(C)c1C=CC1OCC(C)(C)CO1 (configuration not stated)
5,74 to 81,CCCCCCCCCc1ccc(Oc2cccc(C#N)c2C#N)cc1
6,222,O=C(N[C@H]1CC[C@H](CCN2CCN(c3nccc4c3OCC4)CC2)CC1)c1ccnc2ccccc12
7,184 to 186,NS(=O)(=O)c1cc2c(s1)CN(CCO)CC2
8,65 to 70,CCCC(=O)Oc1cc([N+](=O)[O-])cc([N+](=O)[O-])c1O
9,85 to 87,CCOC(=O)c1ccc2c(c1)C(=C1CCN(C)CC1)c1ccccc1CC2
10,181 to 182,COc1cc2nc(N3CCc4cc(OCc5ccccc5)c(OC)cc4C3)cc(N)c2cc1OC
11,111 to 114,CC(C)(C)c1cc(C(=O)COc2ccc(Cl)cc2Oc2ccc(Cl)cc2Cl)cc(C(C)(C)C)c1O
12,107 to 108,CCOC(=O)CN1CCN(C2=Nc3ccccc3Cc3ccccc32)CC1
13,53 to 54,CCCCCCCCCCCCCCOc1ccccc1O
14,114 to 116,OCC(O)Cc1nccn1CCCCc1ccc(OCc2coc(/C=C/c3ccc(F)cc3)n2)cc1 (configuration not stated)
15,105,COc1cc(CCCN(C)Cc2ccc(OC)c(OC)c2)ccc1NC(=O)c1cccc2c(=O)c3cccc(OC)c3[nH]c12
16,135 to 138,O=C(Nc1cccc(C2CN3CCSC3=N2)c1)c1ccc(Cl)nc1 (configuration not stated)
17,177,Oc1ccc(Oc2ccc3ccccc3n2)cc1
18,119 to 122,CC(C)c1nc(CCOCc2ccccc2)n(Cc2cccc([N+](=O)[O-])c2)c1Sc1cc(Cl)cc(Cl)c1
19,52 to 54,COC(=O)CCCCCCCCc1ccc(O)cc1
20,130,CN1CCN(C(=O)N2CCN(C(=O)OC(C)(C)C)CC2)CC1
21,190 to 192,Oc1ccc2c(Cl)cc(-c3ccccc3)nc2c1
22,173 to 174,COc1cc2c3c(c1O)CN(C)CC3c1ccccc1CC2 (configuration not stated)
23,128,O=C(Nc1ccc(Oc2ccccc2)cc1)c1cc([N+](=O)[O-])ccc1Cl
24,92 to 94,COCCOc1ccccc1OCC(O)CN1C(C)CCCC1C (configuration not stated)

row,melting point [°C],SMILES
1,120 to 122,CCc1ccc(S(=O)(=O)Nc2ccc(Cl)cc2)cc1
2,141 to 143,O=C1CCCc2nc3cc(Cl)ccc3c(NCc3ccccc3)c21
3,60 to 80,CN(C)C1CCCC1Cc1cccc(-c2cccc(N)n2)c1 (configuration not stated)
4,155,COC(=O)COC1C(O)C(CO)OC(Oc2ccc(N)cc2)C1O (configuration not stated)
5,> 250,O=c1ccc(S(=O)(=O)c2cc3cc(Cl)cc(Cl)c3[nH]2)n[nH]1
6,152 to 157,COc1ccc(C=CC(=O)C(CCC(=O)O)(Cc2ccccc2Cl)c2ccccc2)cc1 (configuration not stated)
7,182 to 184,NC(=O)N1CCCC(=O)c2ccc(Cl)cc2CCC1=O
8,296 to 297,CCc1cn(C2CC(O)C(CNC(=O)Cc3c(Cl)cccc3Cl)O2)c(=O)[nH]c1=O (configuration not stated)
9,130 to 131,O=C1CC(c2ccccc2Cl)Cc2nccc(Cl)c21 (configuration not stated)
10,117 to 119,CCOc1nn(-c2ccc(C(F)(F)F)cn2)cc1CCOc1ccc(CCC(=O)O)c(C)c1
11,69 to 71,BrCCCCCCCn1c(-c2ccccc2)nc(-c2ccccc2)c1-c1ccccc1
12,191 to 193,CCOC(=O)C1=C(C)NC(C)=C(C(=O)OCC)C1c1c(C)sc2ccccc12
13,198 to 201,Nc1n[nH]c2c1c1cc(Cl)c(Cl)cc1n2C1OC(CO)C(O)C1O (configuration not stated)
14,243 to 246,COc1cc(Nc2nc3c(s2)CCCC3c2ccccc2)ccc1C(N)=O (configuration not stated)
15,97 to 98,CCOC(=O)C1CCCN(CCC2CCc3cc(OCc4ccc(-c5ccccc5)cc4)ccc3C2)C1 (configuration not stated)
16,259 to 260,Cc1ccc(C(=O)C2=C(O)C(=O)N(c3ccc(C)nn3)C2c2ccc(OC3CCN(C)CC3)cc2)cc1 (configuration not stated)
17,190 to 191,NS(=O)(=O)c1ccc(-c2oc3cc(F)ccc3c(=O)c2-c2ccc(Cl)c(Cl)c2)cc1
18,277 to 278,CC(C)(C)[Si](C)(C)Oc1ccc(-c2ccccc2C=C2SC(=O)NC2=O)cc1C12CC3CC(CC(C3)C1)C2
19,214 to 217,Cc1ccc2cc(C(=O)NC3(C(=O)O)CCCC3)sc2c1
20,75,CC1(Cc2cc(C(C)(C)C)c(O)c(C(C)(C)C)c2)CCCCC1=O (configuration not stated)
21,59 to 60,Cc1ccc(C(=O)[C@@H]2[C@@H](C)CCCC2(C)C)cc1Cl

row,SMILES,melting point [°C]
1,CCN(CC)C(=O)c1ccc(C(c2cccc(O)c2)N2CC(C)NCC2C)cc1 (configuration not stated),175 to 177
2,CCN(CC)C(=O)NC1CC2c3cccc4[nH]c(C(C)=O)c(c34)CC2N(C)C1 (configuration not stated),114 to 116
3,CN1C(=O)COc2c(C(=O)NC3CN4CCC3CC4)cc(O)cc21 (configuration not stated),250 to 251
4,CN1C2C=C(c3cc4ccccc4s3)CC1CCC2 (configuration not stated),91.3 to 93.5
